Measured values reported in patent publication EP0742012A2, “Pharmaceutical composition containing substance inhibiting HSP47 production” (priority 1995, dated 1996).

Legend:
HSP47 = assay: Amount of HSP47 produced in human cancer cell lines after substance treatment and heat shock, western blotting; type: cell-based; design: key to amounts of HSP47 produced: ↓: means that the amounts of HSP47 produced were reduced by the flavonoid-treatment in comparison with the control tests; details: for amounts of HSP47 produced: vs control
mouse = details: in vivo, iv; cited from earlier work
mice [1] = details: mouse, in vivo, po
mice [2] = assay: Acute toxicity test for mice by oral administration
[3] = neuroblastoma cell line SK-N-MC, 100 µM in the medium
[4] = colon cancer cell line COLO 205, 100 µM in the medium
[5] = uterus cancer cell line HeLa S3, 100 µM in the medium

Compound: COc1cc(C=CC(=O)O)ccc1O [ferulic acid, 4-hydroxy-3-methoxycinnamic acid]
- HSP47 production (HSP47; uterus cancer cell line HeLa S3, final concentration 100 µM): inhibits the HSP47 production

Compound: C[C@@H]1O[C@@H](OC[C@H]2O[C@@H](Oc3c(-c4ccc(O)c(O)c4)oc4cc(O)cc(O)c4c3=O)[C@H](O)[C@@H](O)[C@@H]2O)[C@H](O)[C@H](O)[C@H]1O [rutin, quercetin-3-rutinoside]
- amounts of HSP47 produced (HSP47; [3]): ↓
- acute toxicity (LD50) (mouse): 950 mg/kg

Compound: (+) -Catechin
- amounts of HSP47 produced (HSP47; [4]): ↓
- amounts of HSP47 produced (HSP47; lung cancer cell line H69, 100 µM in the medium): ↓
- amounts of HSP47 produced (HSP47; [3]): ↓
- amounts of HSP47 produced (HSP47; [5]): ↓

Compound: O=c1c(O)c(-c2ccc(O)c(O)c2)oc2cc(O)cc(O)c12 [quercetin, 2-(3,4-dihydroxyphenyl)-3,5,7-trihydroxy-4H-1-benzopyran-4-one]
- amounts of HSP47 produced (HSP47; [4]): ↓
- amounts of HSP47 produced (HSP47; kidney cancer cell line ACHN, 100 µM in the medium): ↓
- amounts of HSP47 produced (HSP47; [5]): ↓

Compound: Cc1c(C)c2c(c(C)c1O)CCC(C)(CCCC(C)CCCC(C)CCCC(C)C)O2 (stereo not drawn) [α-tocopherol, 3,4-dihydro-2,5,7,8-tetramethyl-2-(4,8,12-trimethyltridecyl)-2H-1-benzopyran-6-ol]
- HSP47 production (HSP47; uterus cancer cell line HeLa S3, final concentration 20 µM): inhibits the HSP47 production

Compound: O=c1cc(-c2ccccc2)oc2cc(O)c(O)c(O)c12 [baicalein, 5,6,7-trihydroxy-2-phenyl-4H-1-benzopyran-4-one]
- amounts of HSP47 produced (HSP47; uterus cancer cell line HeLa S3, 10 µM in the medium): ↓

Compound: C[C@@]12C[C@@]3(O)O[C@@H](O1)[C@]1(COC(=O)c4ccccc4)[C@H]3C[C@@]12O[C@@H]1O[C@H](CO)[C@@H](O)[C@H](O)[C@H]1O [paeoniflorin]
- HSP47 production (HSP47; uterus cancer cell line HeLa S3): inhibits the HSP47 production
- toxicity (mice [1]): does not have toxicity
- death (mice [2]): does hardly cause death
